Measurements from US8735584B2 (Merck Patent GmbH, priority 2008, dated 2014).

Columns and labels:
Format in all cases: biochemical
AurA = biological target: T1, AurA (Homo sapiens, UniProt O14965); assay: Desktop Profiler kinase panel, AurA; settings: for inhibition at 10 µM: 10 micromolar concentration of the compound, read-out: Percent Inhibition AurA; for inhibition at 1 µM: 1 micromolar concentration of the compound
T1 construct: purchased Caliper Life Sciences
T1 sequence (O14965 1-403): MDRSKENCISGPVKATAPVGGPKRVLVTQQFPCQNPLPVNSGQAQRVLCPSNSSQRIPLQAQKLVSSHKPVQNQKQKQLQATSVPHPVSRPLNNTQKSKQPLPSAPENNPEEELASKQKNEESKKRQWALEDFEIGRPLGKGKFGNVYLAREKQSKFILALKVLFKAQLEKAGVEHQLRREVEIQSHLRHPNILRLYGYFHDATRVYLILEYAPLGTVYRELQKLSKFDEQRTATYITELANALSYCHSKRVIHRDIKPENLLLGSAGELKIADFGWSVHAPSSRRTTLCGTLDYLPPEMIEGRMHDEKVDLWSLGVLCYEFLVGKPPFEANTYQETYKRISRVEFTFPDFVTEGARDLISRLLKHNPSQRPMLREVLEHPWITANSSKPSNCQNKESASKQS
Description: (§1) The Aurora assays described here are performed on two Caliper Life Sciences systems: the LC3000 and the Desktop Profiler. These provide data on enzyme activity via measurement of the relative amounts of phosphorylated or unphosphorylated fluorescently labelled substrate peptide at the end of an enzymatic reaction. These different states of peptide are resolved by applying a potential difference across the sample. The presence of the charged phosphate group on the product (as opposed to the substrate) causes a different peptide mobility between the two peptides. This is visualized by excitation of the fluorescent label on the substrate and product peptides and represented as peaks within the analysis software.
(§2) The Desktop Profiler utilizes the same principle as the LC3000 for calculating percentage conversion of a substrate to product. Caliper Life Sciences provides proprietary flash frozen pre-made 384 well plates containing selected kinases. Each column in the 384 well plate contains a particular selected kinase. A second plate, the ‘substrate plate’ contains a mix of fluorescently labeled peptide substrate and ATP. These are arranged in columns so that transfer for substrate plate to enzyme plate provides the correct enzyme with the correct substrate/ATP concentration. Compounds are added to a thawed enzyme plate in the desired format, in single concentrations. Reactions are initiated by transfer of the substrate/ATP mix from the substrate plate. The enzyme plate is incubated for 90 mins at 25 C. The reaction is stopped by addition of 70 ul of Stop Buffer (100 mM HEPES pH 7.5, 0.015% Brij-35, 10 mM EDTA (Sigma, E7889)).
(§3) Reading of the plate in the Profiler is identical to the LC3000, and the ratio between substrate and product peaks provides the activity of the enzyme in that well. This is best represented by a plate heat map which colors each well by percent inhibition as compared to positive and negative controls (no inhibitors and no ATP respectively).
(§4) In the following Tables 3a-4-b, which show the results of the desktop profiler measurements, “+” means 50-70% inhibition, “++” means 70-90% inhibition, and “+++” means >90% inhibition. The enzymes tested for profiling were ABL, AKT1, AKT2, AurA, CHK1, CHK2, CK1d, Erk1, Erk2, FYN, GSK3b, INSR, LCK, LYN, MAPKAPK2, MET, MSK1, p38a, PKA, PKCz, PKD2, PRAK, RSK1 and SRC.

FYN = biological target: T2, FYN (Homo sapiens, UniProt P06241); assay: Desktop Profiler kinase panel, FYN; settings: for inhibition at 10 µM: 10 micromolar concentration of the compound, read-out: Percent Inhibition FYN
T2 construct: purchased Caliper Life Sciences
Description: as §1, §2, §3, §4

ABL = biological target: T3, ABL (Homo sapiens, UniProt P00519); assay: Desktop Profiler kinase panel, ABL; settings: for inhibition at 10 µM: 10 micromolar concentration of the compound, read-out: Percent Inhibition ABL
T3 construct: purchased Caliper Life Sciences
Description: as §1, §2, §3, §4

GST-Aurora A = biological target: T4, GST-Aurora A (Homo sapiens, UniProt O14965); assay: Aurora A IC50, Caliper LC3000 mobility shift assay; settings: LC3000 method; 15 uM ATP (the KM value); read-out: Aurora Kinase A Activity (IC50)
T4 construct: N-terminal GST fusion with full length Aurora A (1-403 amino acids); purchased Carna Biosciences 05-101
T4 sequence (O14965 1-403): T1 sequence (O14965 1-403)
Summary of the method: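 Readout: percent conversion of FITC-LRRASLG (1 uM) to phosphopeptide, resolved electrophoretically on a Caliper LC3000, fitted against inhibitor concentration for IC50. Reaction: N-terminal GST full-length Aurora A, ATP at its KM (15 uM), pH 7.5 HEPES with MgCl2/DTT, 25 C for 90 min.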

CHK2 = biological target: T5, CHK2 (Homo sapiens, UniProt O96017); assay: Desktop Profiler kinase panel, CHK2; settings: 10 micromolar concentration of the compound; read-out: Percent Inhibition CHK2
T5 construct: purchased Caliper Life Sciences
Description: as §1, §2, §3, §4

LYN = biological target: T6, LYN (Homo sapiens, UniProt P07948); assay: Desktop Profiler kinase panel, LYN; settings: 10 micromolar concentration of the compound; read-out: Percent Inhibition LYN
T6 construct: purchased Caliper Life Sciences
Description: as §1, §2, §3, §4

SRC = biological target: T7, SRC (Homo sapiens, UniProt P12931); assay: Desktop Profiler kinase panel, SRC; settings: 10 micromolar concentration of the compound; read-out: Percent Inhibition SRC
T7 construct: purchased Caliper Life Sciences
Description: as §1, §2, §3, §4

[1] = 1 micromolar concentration of the compound

T5 sequence (O96017 whole entry, species assumed): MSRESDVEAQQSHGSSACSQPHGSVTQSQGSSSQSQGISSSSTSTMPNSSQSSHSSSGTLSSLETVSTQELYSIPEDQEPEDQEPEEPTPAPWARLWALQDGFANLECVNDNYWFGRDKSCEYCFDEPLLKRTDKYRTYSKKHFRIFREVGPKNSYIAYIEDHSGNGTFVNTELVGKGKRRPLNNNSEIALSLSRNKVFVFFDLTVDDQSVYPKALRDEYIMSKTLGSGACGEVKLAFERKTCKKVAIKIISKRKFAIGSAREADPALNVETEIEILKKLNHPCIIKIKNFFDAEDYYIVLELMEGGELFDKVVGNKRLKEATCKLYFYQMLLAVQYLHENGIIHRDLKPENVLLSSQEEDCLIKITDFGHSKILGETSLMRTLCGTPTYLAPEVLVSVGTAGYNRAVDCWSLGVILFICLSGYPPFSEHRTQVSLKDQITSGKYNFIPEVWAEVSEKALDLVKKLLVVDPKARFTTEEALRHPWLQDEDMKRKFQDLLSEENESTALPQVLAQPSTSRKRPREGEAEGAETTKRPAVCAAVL
T2 sequence (P06241 whole entry, species assumed): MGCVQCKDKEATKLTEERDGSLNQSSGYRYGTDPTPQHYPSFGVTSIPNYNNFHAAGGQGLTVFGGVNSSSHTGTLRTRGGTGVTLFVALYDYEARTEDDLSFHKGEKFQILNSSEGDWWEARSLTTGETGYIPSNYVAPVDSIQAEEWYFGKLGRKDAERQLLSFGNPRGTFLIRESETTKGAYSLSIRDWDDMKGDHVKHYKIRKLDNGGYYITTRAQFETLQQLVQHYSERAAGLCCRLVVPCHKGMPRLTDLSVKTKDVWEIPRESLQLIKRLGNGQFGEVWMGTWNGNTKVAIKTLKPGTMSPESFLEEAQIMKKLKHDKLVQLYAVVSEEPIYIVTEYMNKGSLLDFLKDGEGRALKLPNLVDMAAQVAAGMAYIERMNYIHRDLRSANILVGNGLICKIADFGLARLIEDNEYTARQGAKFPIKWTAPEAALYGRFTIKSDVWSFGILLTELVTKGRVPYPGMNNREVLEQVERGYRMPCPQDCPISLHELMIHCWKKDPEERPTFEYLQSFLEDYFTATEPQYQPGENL
T3 sequence (P00519 whole entry, species assumed): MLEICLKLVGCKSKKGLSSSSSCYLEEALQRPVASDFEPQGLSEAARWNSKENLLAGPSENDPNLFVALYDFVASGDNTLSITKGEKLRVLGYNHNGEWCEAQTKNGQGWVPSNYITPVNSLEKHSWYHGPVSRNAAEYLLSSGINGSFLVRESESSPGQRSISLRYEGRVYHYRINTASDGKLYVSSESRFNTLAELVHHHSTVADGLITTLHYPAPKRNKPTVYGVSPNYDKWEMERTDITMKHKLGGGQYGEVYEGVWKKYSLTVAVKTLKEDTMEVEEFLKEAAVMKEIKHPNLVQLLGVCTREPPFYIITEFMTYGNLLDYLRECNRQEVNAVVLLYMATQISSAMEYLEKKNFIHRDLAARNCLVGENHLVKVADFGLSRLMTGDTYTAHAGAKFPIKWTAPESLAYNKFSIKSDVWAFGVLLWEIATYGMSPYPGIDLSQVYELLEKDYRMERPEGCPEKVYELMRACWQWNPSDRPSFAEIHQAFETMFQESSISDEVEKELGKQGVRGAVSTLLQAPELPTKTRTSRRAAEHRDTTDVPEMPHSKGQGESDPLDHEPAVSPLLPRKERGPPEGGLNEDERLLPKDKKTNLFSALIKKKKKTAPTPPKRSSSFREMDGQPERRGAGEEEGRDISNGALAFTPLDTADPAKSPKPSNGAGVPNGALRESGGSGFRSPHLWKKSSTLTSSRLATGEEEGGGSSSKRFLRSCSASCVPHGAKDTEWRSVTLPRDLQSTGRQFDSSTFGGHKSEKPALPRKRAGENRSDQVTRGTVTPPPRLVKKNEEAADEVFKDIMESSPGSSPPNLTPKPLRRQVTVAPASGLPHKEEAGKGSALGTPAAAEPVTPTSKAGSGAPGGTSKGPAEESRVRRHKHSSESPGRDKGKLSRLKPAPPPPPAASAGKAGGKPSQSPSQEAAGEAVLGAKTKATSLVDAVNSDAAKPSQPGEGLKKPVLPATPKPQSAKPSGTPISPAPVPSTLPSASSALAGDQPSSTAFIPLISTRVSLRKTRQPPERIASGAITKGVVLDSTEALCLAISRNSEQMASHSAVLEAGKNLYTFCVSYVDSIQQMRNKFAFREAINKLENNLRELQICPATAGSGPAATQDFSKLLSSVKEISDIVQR
T7 sequence (P12931 whole entry, species assumed): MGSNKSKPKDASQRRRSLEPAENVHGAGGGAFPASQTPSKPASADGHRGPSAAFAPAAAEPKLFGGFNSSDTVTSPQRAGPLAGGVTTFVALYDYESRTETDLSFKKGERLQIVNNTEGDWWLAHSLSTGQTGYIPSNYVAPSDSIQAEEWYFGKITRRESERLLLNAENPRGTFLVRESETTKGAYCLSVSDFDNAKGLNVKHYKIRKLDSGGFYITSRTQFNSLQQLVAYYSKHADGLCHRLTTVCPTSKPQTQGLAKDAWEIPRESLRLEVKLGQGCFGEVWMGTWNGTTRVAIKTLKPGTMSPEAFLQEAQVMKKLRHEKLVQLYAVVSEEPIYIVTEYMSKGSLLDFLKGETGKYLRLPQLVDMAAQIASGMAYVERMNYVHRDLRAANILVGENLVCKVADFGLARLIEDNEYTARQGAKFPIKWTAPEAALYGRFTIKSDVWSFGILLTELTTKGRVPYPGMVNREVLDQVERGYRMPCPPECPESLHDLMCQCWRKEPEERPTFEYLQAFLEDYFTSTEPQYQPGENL
T6 sequence (P07948 whole entry, species assumed): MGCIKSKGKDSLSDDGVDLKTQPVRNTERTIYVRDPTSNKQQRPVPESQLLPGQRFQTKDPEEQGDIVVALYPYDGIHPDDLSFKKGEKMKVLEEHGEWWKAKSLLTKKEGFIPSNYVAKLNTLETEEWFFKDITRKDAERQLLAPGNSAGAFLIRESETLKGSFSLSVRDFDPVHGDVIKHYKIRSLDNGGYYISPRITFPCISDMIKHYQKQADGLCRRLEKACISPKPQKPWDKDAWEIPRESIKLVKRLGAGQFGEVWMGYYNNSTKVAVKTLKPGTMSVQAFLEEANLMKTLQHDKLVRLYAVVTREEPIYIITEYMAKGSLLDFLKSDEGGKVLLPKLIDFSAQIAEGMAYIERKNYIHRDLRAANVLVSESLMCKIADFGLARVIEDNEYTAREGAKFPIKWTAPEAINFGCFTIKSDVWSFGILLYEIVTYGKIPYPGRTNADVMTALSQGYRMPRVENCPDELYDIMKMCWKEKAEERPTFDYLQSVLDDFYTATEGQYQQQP

Row | SMILES | inhibition at 10 µM (AurA) | IC50 (GST-Aurora A) | further results
1 | O=c1[nH]c2ncccc2c2cc(Cl)ccc12 [Example 6, 9-Chloro-5H-benzo[c][1,8]naphthyridin-6-one] | 50 to 70% | – | –
2 | O=c1[nH]c2ncc(Cl)cc2c2ccccc12 [Example 9, 2-Chloro-5H-benzo[c][1,8]naphthyridin-6-one] | 50 to 70% | – | –
3 | O=c1[nH]c2ncc(Nc3ccccc3)cc2c2ccccc12 [Example 12, 2-Phenylamino-5H-benzo[c][1,8]naphthyridin-6-one] | – | – | inhibition at 10 µM (FYN): 50 to 70%; inhibition at 10 µM (ABL): 70 to 90%
4 | O=c1[nH]c2ncccc2c2cc(NCc3ccccc3)ccc12 [Example 25, 9-Benzylamino-5H-benzo[c][1,8]naphthyridin-6-one] | – | > 100 nM | inhibition at 1 µM (AurA): 70 to 90%
5 | O=c1[nH]c2ncccc2c2cc(N3CCOCC3)ccc12 [Example 26, 9-Morpholin-4-yl-5H-benzo[c][1,8]naphthyridin-6-one] | 70 to 90% | – | inhibition at 10 µM (CHK2): 50 to 70%
6 | COCCNc1ccc2c(=O)[nH]c3ncccc3c2c1 [Example 27, 9-(2-Methoxy-ethylamino)-5H-benzo[c][1,8]naphthyridin-6-one] | 70 to 90% | – | inhibition at 10 µM (CHK2): 50 to 70%
7 | COc1ccc(Nc2ccc3c(=O)[nH]c4ncccc4c3c2)cc1 [Example 29, 9-(4-Methoxy-phenylamino)-5H-benzo[c][1,8]naphthyridin-6-one] | 70 to 90% | > 100 nM | inhibition at 1 µM (AurA): 50 to 70%
8 | COc1ccc(CNc2ccc3c(=O)[nH]c4ncccc4c3c2)cc1 [Example 33, 9-(4-Methoxy-benzylamino)-5H-benzo[c][1,8]naphthyridin-6-one] | 70 to 90% | – | inhibition at 1 µM (AurA): 50 to 70%
9 | O=c1[nH]c2ncccc2c2cc(NCc3cccc(F)c3)ccc12 [Example 35, 9-(3-Fluoro-benzylamino)-5H-benzo[c][1,8]naphthyridin-6-one] | – | > 100 nM | inhibition at 1 µM (AurA): > 90%
10 | COc1ccc(CCNc2ccc3c(=O)[nH]c4ncccc4c3c2)cc1 [Example 36, 9-[2-(4-Methoxy-phenyl)-ethylamino]-5H-benzo[c][1,8]naphthyridin-6-one] | > 90% | > 100 nM | inhibition at 10 µM (CHK2): 70 to 90%; inhibition at 10 µM (FYN): 50 to 70%; inhibition at 1 µM (AurA): 50 to 70%
11 | COc1ccc(Oc2ccnc3[nH]c(=O)c4ccccc4c23)cc1 [Example 125, 1-(4-Methoxy-phenoxy)-5H-benzo[c][1,8]naphthyridin-6-one] | – | – | inhibition at 1 µM (FYN; [1]): 70 to 90%; inhibition at 1 µM (ABL; [1]): 70 to 90%
12 | Clc1nc2nccc(Oc3ccccc3)c2c2ccccc12 [Example 140, 6-Chloro-1-phenoxy-benzo[c][1,8]naphthyridine] | – | – | inhibition at 10 µM (FYN): 50 to 70%; inhibition at 10 µM (SRC): 50 to 70%; inhibition at 10 µM (ABL): 50 to 70%
13 | Nc1ccnc2[nH]c(=O)c3ccccc3c12 [Example 141, 1-Amino-5H-benzo[c][1,8]naphthyridin-6-one] | 50 to 70% | – | –
14 | COc1cc2c(=O)[nH]c3nccc(Nc4ccc(Cl)cc4)c3c2cc1OC [Example 213, 1-(4-Chloro-phenylamino)-8,9-dimethoxy-5H-benzo[c][1,8]naphthyridin-6-one] | – | 11 to 100 nM | –
15 | COc1cc2c(=O)[nH]c3nccc(Nc4ccccc4F)c3c2cc1OC [Example 216, 1-(2-Fluoro-phenylamino)-8,9-dimethoxy-5H-benzo[c][1,8]naphthyridin-6-one] | – | 11 to 100 nM | –

More lines, main results first:

Row | inhibition at 10 µM (AurA) | IC50 (GST-Aurora A) | SMILES | further results
16 | > 90% | > 100 nM | COc1ccccc1Nc1ccc2c(=O)[nH]c3ncccc3c2c1 [Example 30, 9-(2-Methoxy-phenylamino)-5H-benzo[c][1,8]naphthyridin-6-one] | inhibition at 10 µM (FYN): 50 to 70%; inhibition at 10 µM (LYN): 70 to 90%; inhibition at 1 µM (AurA): 70 to 90%; inhibition at 10 µM (SRC): 50 to 70%; inhibition at 10 µM (ABL): 50 to 70%
17 | – | > 100 nM | COc1ccccc1CNc1ccc2c(=O)[nH]c3ncccc3c2c1 [Example 34, 9-(2-Methoxy-benzylamino)-5H-benzo[c][1,8]naphthyridin-6-one] | inhibition at 1 µM (AurA): > 90%
18 | 50 to 70% | – | COc1ccc(CNc2cnc3[nH]c(=O)c4ccccc4c3c2)cc1 [Example 37, 2-(4-Methoxy-benzylamino)-5H-benzo[c][1,8]naphthyridin-6-one] | –
19 | 50 to 70% | – | COc1cccc(CNc2cnc3[nH]c(=O)c4ccccc4c3c2)c1 [Example 38, 2-(3-Methoxy-benzylamino)-5H-benzo[c][1,8]naphthyridin-6-one] | –
20 | 50 to 70% | – | COc1ccccc1CNc1cnc2[nH]c(=O)c3ccccc3c2c1 [Example 39, 2-(2-Methoxy-benzylamino)-5H-benzo[c][1,8]naphthyridin-6-one] | –
21 | – | > 100 nM | O=C(Nc1ccc(Oc2ccnc3[nH]c(=O)c4ccccc4c23)cc1)c1cccn(-c2ccc(F)cc2)c1=O [Example 181, 1-(4-Fluoro-phenyl)-2-oxo-1,2-dihydro-pyridine-3-carboxylic acid [4-(6-oxo-5,6-dihydro-benzo[c][1,8]naphthyridin-1-yloxy)-phenyl]-amide] | –
22 | – | > 100 nM | O=C(Nc1ccc(Oc2ccnc3[nH]c(=O)c4ccccc4c23)c(F)c1)c1cc(Cl)cnc1Cl [Example 183, 2,5-Dichloro-N-[3-fluoro-4-(6-oxo-5,6-dihydro-benzo[c][1,8]naphthyridin-1-yloxy)-phenyl]-nicotinamide] | –
23 | – | > 100 nM | O=C(Nc1ccc(Oc2ccnc3[nH]c(=O)c4ccccc4c23)cc1F)c1cccn(-c2ccc(F)cc2)c1=O [Example 187, 1-(4-Fluoro-phenyl)-2-oxo-1,2-dihydro-pyridine-3-carboxylic acid [2-fluoro-4-(6-oxo-5,6-dihydro-benzo[c][1,8]naphthyridin-1-yloxy)-phenyl]-amide] | –
24 | – | > 100 nM | O=c1[nH]c2nccc(Nc3c(Cl)ccc4c3OCO4)c2c2ccccc12 [Example 188, 1-(5-Chloro-benzo[1,3]dioxol-4-ylamino)-5H-benzo[c][1,8]naphthyridin-6-one] | –
25 | – | > 100 nM | COc1cc2c(=O)[nH]c3nccc(Nc4ccc(F)cc4)c3c2cc1OC [Example 215, 1-(4-Fluoro-phenylamino)-8,9-dimethoxy-5H-benzo[c][1,8]naphthyridin-6-one] | –
26 | – | > 100 nM | O=C(c1ccc(F)cc1C(F)(F)F)N1CCOc2cc(Oc3ccnc4[nH]c(=O)c5ccccc5c34)ccc21 [Example 219, 1-[4-(4-Fluoro-2-trifluoromethyl-benzoyl)-3,4-dihydro-2H-benzo[1,4]oxazin-7-yloxy]-5H-benzo[c][1,8]naphthyridin-6-one] | –
27 | – | > 100 nM | O=C(c1cccn(-c2ccc(F)cc2)c1=O)N1CCOc2cc(Oc3ccnc4[nH]c(=O)c5ccccc5c34)ccc21 [Example 228, 1-{4-[1-(4-Fluoro-phenyl)-2-oxo-1,2-dihydro-pyridine-3-carbonyl]-3,4-dihydro-2H-benzo[1,4]oxazin-7-yloxy}-5H-benzo[c][1,8]naphthyridin-6-one] | –
